From patent publication US20250324971A1, “HERBICIDAL DERIVATIVES” (SYNGENTA CROP PROTECTION AG, priority 2022, published 2025)

Legend:
Type in all cases: in vivo
[1] = system: Ipomoea hederacea (IPOHE); experiment: Pre-Emergence Test (herbicidal, glasshouse pots); details: rate 1000 g/ha, evaluated after 13 days, five-point scale
[2] = system: Echinochloa crus-galli (ECHCG); experiment: Pre-Emergence Test (herbicidal, glasshouse pots); details: rate 1000 g/ha, evaluated after 13 days, five-point scale
[3] = system: Amaranthus retoflexus (AMARE); experiment: Pre-Emergence Test (herbicidal, glasshouse pots); details: rate 1000 g/ha, evaluated after 13 days, five-point scale
Zea mays (ZEAMX) [4] = experiment: Pre-Emergence Test (herbicidal, glasshouse pots); details: rate 1000 g/ha, evaluated after 13 days, five-point scale
[5] = system: Amaranthus palmeri (AMAPA); experiment: Pre-Emergence Test (herbicidal, glasshouse pots); details: rate 1000 g/ha, evaluated after 13 days, five-point scale
[6] = system: Amaranthus palmeri (AMAPA); experiment: Post-Emergence Test (herbicidal, glasshouse pots); details: rate 1000 g/ha; evaluated after 13 days
Protocol: (§1) Seeds of a variety of test species are sown in standard soil in pots (Setaria faberi (SETFA), Ipomoea hederacea (IPOHE), Echinochloa crus-galli (ECHCG), (Amaranthus retoflexus (AMARE), Zea mays (ZEAMX), and Amaranthus palmeri (AMAPA)). After 8 days cultivation under controlled conditions in a glasshouse (at 24° C./16° C., day/night; 14 hours light; 65% humidity), the plants arm sprayed with an aqueous spray solution derived from the formulation of the technical active ingredient in acetone/water (50:50) solution containing 0.5% Tween 20 (polyoxyethylene sorbitan monolaurate, CAS RN 9005-84-5). Rate of application is shown in g/ha in the tables below. The test plants are then grown in a glasshouse under controlled conditions in a glasshouse (at 24° C./16° C., day/night; 14 hours light; 65% humidity) and watered twice daily. After 13 days the test is evaluated for the percentage damage caused to the plant. The biological activities are shown in the following table on a five-point scale (5=81-100%; 4=61-80%; 3=41-60%; 2=21-40%; 1=0-20%; -=not tested).

[7] = system: Amaranthus retoflexus (AMARE); experiment: Post-Emergence Test (herbicidal, glasshouse pots); details: rate 1000 g/ha; evaluated after 13 days
Protocol: as §1

[8] = system: Echinochloa crus-galli (ECHCG); experiment: Post-Emergence Test (herbicidal, glasshouse pots); details: rate 1000 g/ha; evaluated after 13 days
Protocol: as §1

[9] = system: Ipomoea hederacea (IPOHE); experiment: Post-Emergence Test (herbicidal, glasshouse pots); details: rate 1000 g/ha; evaluated after 13 days
Protocol: as §1

Zea mays (ZEAMX) [10] = experiment: Post-Emergence Test (herbicidal, glasshouse pots); details: rate 1000 g/ha; evaluated after 13 days
Protocol: as §1

| Compound | percentage damage caused to the plant, IPHOE [1] | percentage damage caused to the plant, ECHCG [2] | percentage damage caused to the plant, AMARE [3] | percentage damage caused to the plant, ZEAMX (Zea mays (ZEAMX) [4]) | percentage damage caused to the plant, AMAPA [5] | Post-Emergence Test AMAPA percentage damage (five-point scale) [6] | Post-Emergence Test AMARE percentage damage (five-point scale) [7] | Post-Emergence Test ECHCG percentage damage (five-point scale) [8] | Post-Emergence Test IPHOE percentage damage (five-point scale) [9] | Post-Emergence Test ZEAMX percentage damage (five-point scale) (Zea mays (ZEAMX) [10]) |
| --- | --- | --- | --- | --- | --- | --- | --- | --- | --- | --- |
| CCn1c(Sc2ccc(F)cc2)cc(=O)c(C(=O)O)c1-c1ccc(Cl)c(Cl)c1 [Compound 10, 2-(3,4-dichlorophenyl)-1-ethyl-6-(4-fluorophenyl)sulfanyl-4-oxo-pyridine-3-carboxylic acid] | 2 (2=21-40%) | 2 (2=21-40%) | 1 (1=0-20%) | 0 | 0 | 1 (1=0-20%) | 1 (1=0-20%) | 2 (2=21-40%) | 2 (2=21-40%) | 1 (1=0-20%) |
| CCn1c(Oc2ccc(OC)cc2)cc(=O)c(C(=O)O)c1-c1ccc(Cl)c(Cl)c1 [Compound 11, 2-(3,4-dichlorophenyl)-1-ethyl-6-(4-methoxyphenoxy)-4-oxo-pyridine-3-carboxylic acid] | 5 (5=81-100%) | 0 | 2 (2=21-40%) | 1 (1=0-20%) | 1 (1=0-20%) | 5 (5=81-100%) | 5 (5=81-100%) | 1 (1=0-20%) | 3 (3=41-60%) | 2 (2=21-40%) |
| CCn1c(Oc2cccc(F)c2)cc(=O)c(C(=O)O)c1-c1ccc(Cl)c(Cl)c1 [Compound 12, 2-(3,4-dichlorophenyl)-1-ethyl-6-(3-fluorophenoxy)-4-oxo-pyridine-3-carboxylic acid] | 5 (5=81-100%) | 5 (5=81-100%) | 4 (4=61-80%) | 4 (4=61-80%) | 4 (4=61-80%) | 5 (5=81-100%) | 5 (5=81-100%) | 4 (4=61-80%) | 5 (5=81-100%) | 4 (4=61-80%) |
| CCn1c(Oc2cncc(Cl)c2)cc(=O)c(C(=O)O)c1-c1ccc(Cl)c(Cl)c1 [Compound 13, 6-[(5-chloro-3-pyridyl)oxy]-2-(3,4-dichlorophenyl)-1-ethyl-4-oxo-pyridine-3-carboxylic acid] | 5 (5=81-100%) | 4 (4=61-80%) | 5 (5=81-100%) | 2 (2=21-40%) | 4 (4=61-80%) | 4 (4=61-80%) | 5 (5=81-100%) | 5 (5=81-100%) | 4 (4=61-80%) | 4 (4=61-80%) |
| CCn1c(Oc2cc(F)cc(F)c2)cc(=O)c(C(=O)O)c1-c1ccc(Cl)c(Cl)c1 [Compound 15, 2-(3,4-dichlorophenyl)-6-(3,5-difluorophenoxy)-1-ethyl-4-oxo-pyridine-3-carboxylic acid] | 3 (3=41-60%) | 4 (4=61-80%) | 1 (1=0-20%) | 1 (1=0-20%) | 1 (1=0-20%) | 3 (3=41-60%) | 4 (4=61-80%) | 3 (3=41-60%) | 3 (3=41-60%) | 3 (3=41-60%) |
| CCn1c(Oc2cccc(Cl)c2Cl)cc(=O)c(C(=O)O)c1-c1ccc(Cl)c(Cl)c1 [Compound 17, 6-(2,3-dichlorophenoxy)-2-(3,4-dichlorophenyl)-1-ethyl-4-oxo-pyridine-3-carboxylic acid] | 0 | 0 | 0 | 1 (1=0-20%) | 0 | 1 (1=0-20%) | 1 (1=0-20%) | 1 (1=0-20%) | 0 | 1 (1=0-20%) |
| CCn1c(Oc2ccc(Cl)c(Cl)c2)cc(=O)c(C(=O)O)c1-c1ccc(Cl)c(Cl)c1 [Compound 18, 6-(3,4-dichlorophenoxy)-2-(3,4-dichlorophenyl)-1-ethyl-4-oxo-pyridine-3-carboxylic acid] | 0 | 0 | 0 | 0 | 0 | 1 (1=0-20%) | 1 (1=0-20%) | 0 | 1 (1=0-20%) | 1 (1=0-20%) |
| CCn1c(Oc2ccc(Cl)cc2)cc(=O)c(C(=O)O)c1-c1ccc(Cl)c(Cl)c1 [Compound 19, 6-(4-chlorophenoxy)-2-(3,4-dichlorophenyl)-1-ethyl-4-oxo-pyridine-3-carboxylic acid] | 1 (1=0-20%) | 4 (4=61-80%) | 0 | 1 (1=0-20%) | 0 | 4 (4=61-80%) | 5 (5=81-100%) | 3 (3=41-60%) | 3 (3=41-60%) | 3 (3=41-60%) |
| CCn1c(Nc2ccc(C3CC3)cc2)cc(=O)c(C(=O)O)c1-c1ccc(Cl)c(Cl)c1 [Compound 22] | 0 | 0 | 1 (1=0-20%) | 0 | 0 | – | – | – | – | – |
| CCn1c(Nc2ccc(C)c(C(F)(F)F)c2)cc(=O)c(C(=O)O)c1-c1ccc(Cl)c(Cl)c1 [Compound 23, 2-(3,4-dichlorophenyl)-1-ethyl-6-[4-methyl-3-(trifluoromethyl)anilino]-4-oxo-pyridine-3-carboxylic acid] | 0 | 1 (1=0-20%) | 1 (1=0-20%) | 0 | 0 | 0 | 1 (1=0-20%) | 0 | 0 | 0 |
| CCn1c(Oc2ccc(Cl)cc2OC)cc(=O)c(C(=O)O)c1-c1ccc(Cl)c(Cl)c1 [Compound 26, 6-(4-chloro-2-methoxy-phenoxy)-2-(3,4-dichlorophenyl)-1-ethyl-4-oxo-pyridine-3-carboxylic acid] | 0 | 0 | 1 (1=0-20%) | 0 | 1 (1=0-20%) | 1 (1=0-20%) | 1 (1=0-20%) | 0 | 1 (1=0-20%) | 1 (1=0-20%) |
| CCn1c(Nc2cccc(C)n2)cc(=O)c(C(=O)O)c1-c1ccc(Cl)c(Cl)c1 [Compound 32, 2-(3,4-dichlorophenyl)-1-ethyl-6-[(6-methyl-2-pyridyl)amino]-4-oxo-pyridine-3-carboxylic acid] | – | – | – | – | – | 3 (3=41-60%) | 4 (4=61-80%) | 2 (2=21-40%) | 1 (1=0-20%) | 1 (1=0-20%) |
